Source: PubChem BioAssay (NCI)
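Step 1: Grow cells in 96-well plates. Step 2: Expose to compound for 48 hours at 5 concentrations. Step 3: Interpolate endpoints linearly; if unreached, use highest concentration. At the GI50, growth is halved. TGI denotes the concentration required for complete inhibition of growth.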

Assays:
Assay in all cases: NCI-60 cell line screen, 48 h
OVCAR-5 ovarian = system: OVCAR-5 ovarian
HL-60(TB) leukemia = system: HL-60(TB) leukemia
COLO 205 colon = system: COLO 205 colon
HOP-62 NSCLC = system: HOP-62 NSCLC
RXF 393 renal = system: RXF 393 renal
IGROV1 ovarian = system: IGROV1 ovarian
UO-31 renal = system: UO-31 renal
786-0 renal = system: 786-0 renal
A549 NSCLC = system: A549 NSCLC
M14 melanoma = system: M14 melanoma

SMILES: O=C(/C=C/c1ccccc1)c1ccc(NCc2nc3ccccc3[nH]2)cc1
- TGI (OVCAR-5 ovarian): 23.2 µM
- TGI (HL-60(TB) leukemia): > 22.3 µM
- TGI (COLO 205 colon): 11.1 µM
- TGI (HOP-62 NSCLC): 23.3 µM
- TGI (RXF 393 renal): 16.8 µM
- TGI (IGROV1 ovarian): 19.8 µM
- TGI (UO-31 renal): 20.2 µM
- TGI (786-0 renal): 14.4 µM
- TGI (A549 NSCLC): 17.4 µM
- TGI (M14 melanoma): 21.4 µM

SMILES: CNC(=O)c1nn(C)c2c1C(C)(C)Cc1cnc(Nc3ccc(N4CCN(C)CC4)cc3)nc1-2
- GI50 (OVCAR-5 ovarian): 0.504 µM
- TGI (OVCAR-5 ovarian): > 9.01 µM
- GI50 (HL-60(TB) leukemia): 0.695 µM
- TGI (HL-60(TB) leukemia): > 10 µM
- GI50 (COLO 205 colon): 0.313 µM
- TGI (COLO 205 colon): 3.12 µM
- GI50 (HOP-62 NSCLC): 0.435 µM
- TGI (HOP-62 NSCLC): 9.84 µM
- GI50 (RXF 393 renal): 0.343 µM
- TGI (RXF 393 renal): > 4.5 µM
- GI50 (IGROV1 ovarian): 0.182 µM
- TGI (IGROV1 ovarian): 1.6 µM
- GI50 (UO-31 renal): 0.169 µM
- TGI (UO-31 renal): 2.39 µM
- GI50 (786-0 renal): 0.649 µM
- TGI (786-0 renal): > 10 µM
- GI50 (A549 NSCLC): 0.682 µM
- TGI (A549 NSCLC): > 10 µM
- GI50 (M14 melanoma): 0.248 µM
- TGI (M14 melanoma): > 8.53 µM

SMILES: Cc1cc(I)cc(CN(C)CCCN2CCCC2)c1O
- GI50 (OVCAR-5 ovarian): 27.8 µM
- TGI (OVCAR-5 ovarian): > 94.7 µM
- GI50 (HL-60(TB) leukemia): 13.4 µM
- TGI (HL-60(TB) leukemia): 31.3 µM
- GI50 (COLO 205 colon): 15.6 µM
- TGI (COLO 205 colon): 33.1 µM
- GI50 (HOP-62 NSCLC): 16.4 µM
- TGI (HOP-62 NSCLC): 34.8 µM
- GI50 (RXF 393 renal): 16.3 µM
- TGI (RXF 393 renal): 41 µM
- GI50 (IGROV1 ovarian): 19.5 µM
- TGI (IGROV1 ovarian): 44.7 µM
- GI50 (UO-31 renal): 20 µM
- TGI (UO-31 renal): > 60.9 µM
- GI50 (786-0 renal): 14.4 µM
- TGI (786-0 renal): 30.3 µM
- GI50 (A549 NSCLC): 29.9 µM
- TGI (A549 NSCLC): > 100 µM
- GI50 (M14 melanoma): 16.4 µM
- TGI (M14 melanoma): 33 µM

SMILES: O=[N+]([O-])c1ccc(Sc2c3ccccc3nc3cc(Cl)ccc23)cc1
- GI50 (OVCAR-5 ovarian): > 100 µM
- TGI (OVCAR-5 ovarian): > 100 µM
- TGI (HL-60(TB) leukemia): > 100 µM
- GI50 (COLO 205 colon): > 100 µM
- TGI (COLO 205 colon): > 100 µM
- GI50 (HOP-62 NSCLC): > 100 µM
- TGI (HOP-62 NSCLC): > 100 µM
- TGI (RXF 393 renal): > 100 µM
- GI50 (IGROV1 ovarian): > 100 µM
- TGI (IGROV1 ovarian): > 100 µM
- GI50 (UO-31 renal): > 100 µM
- TGI (UO-31 renal): > 100 µM
- GI50 (786-0 renal): > 100 µM
- TGI (786-0 renal): > 100 µM
- GI50 (A549 NSCLC): > 100 µM
- TGI (A549 NSCLC): > 100 µM
- GI50 (M14 melanoma): > 100 µM
- TGI (M14 melanoma): > 100 µM

SMILES: COc1ccc(C(=O)c2ccc([As]=O)cc2)cc1 (stereo not drawn)
- GI50 (OVCAR-5 ovarian): 0.144 µM
- TGI (OVCAR-5 ovarian): 0.292 µM
- GI50 (HL-60(TB) leukemia): 0.106 µM
- TGI (HL-60(TB) leukemia): 0.346 µM
- GI50 (COLO 205 colon): 0.041 µM
- TGI (COLO 205 colon): 0.166 µM
- GI50 (HOP-62 NSCLC): 0.0412 µM
- TGI (HOP-62 NSCLC): 0.183 µM
- GI50 (RXF 393 renal): 0.059 µM
- TGI (RXF 393 renal): 0.188 µM
- GI50 (IGROV1 ovarian): 0.0363 µM
- TGI (IGROV1 ovarian): 0.158 µM
- GI50 (UO-31 renal): 0.0696 µM
- TGI (UO-31 renal): 0.204 µM
- GI50 (786-0 renal): 0.0605 µM
- TGI (786-0 renal): 0.191 µM
- GI50 (A549 NSCLC): 0.158 µM
- TGI (A549 NSCLC): 0.348 µM
- GI50 (M14 melanoma): 0.0629 µM
- TGI (M14 melanoma): 0.218 µM

SMILES: C(=N\Nc1nnn(Cc2ccccc2)n1)/c1ccccc1
- GI50 (OVCAR-5 ovarian): > 43.7 µM
- TGI (OVCAR-5 ovarian): > 96.6 µM
- GI50 (HL-60(TB) leukemia): 1.3 µM
- TGI (HL-60(TB) leukemia): 11.7 µM
- GI50 (COLO 205 colon): 3.2 µM
- TGI (COLO 205 colon): > 59.2 µM
- GI50 (HOP-62 NSCLC): 4.77 µM
- TGI (HOP-62 NSCLC): > 52.4 µM
- GI50 (RXF 393 renal): 2.58 µM
- TGI (RXF 393 renal): 20.2 µM
- GI50 (IGROV1 ovarian): 7.05 µM
- TGI (IGROV1 ovarian): > 100 µM
- GI50 (UO-31 renal): 9.68 µM
- TGI (UO-31 renal): > 100 µM
- GI50 (786-0 renal): 8.54 µM
- TGI (786-0 renal): > 100 µM
- GI50 (A549 NSCLC): 4.7 µM
- TGI (A549 NSCLC): > 100 µM
- GI50 (M14 melanoma): 1.31 µM
- TGI (M14 melanoma): 26.5 µM
